Reference: US12558428B2, “Heterobifunctional compounds and their use in treating disease” (Halda Therapeutics OpCo, Inc., priority 2024, dated 2026)
Where two headings read alike, the source gives them in different places.

What was measured:
Format in all cases: cell-based
[1] = tested on: T-Rex 293 cells having increased expression of estrogen receptor alpha protein; experiment: Cellular growth inhibition assay, T-Rex 293 cells, (+) doxycycline; conditions: 72 hours
Outline: (§1)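 Viability read-out was CellTiter-Glo 2.0 luminescence after 72 h compound exposure, normalized to zero luminescence and fitted by four-parameter regression to give GI50. Cells were an ERα-inducible T-Rex 293 clone cultured with or without 3 ng/mL doxycycline in charcoal-stripped, phenol red-free medium.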

[2] = tested on: T-Rex 293 cells lacking increased expression of estrogen receptor alpha protein; experiment: Cellular growth inhibition assay, T-Rex 293 cells, (−) doxycycline; conditions: 72 hours
Outline: as §1

[3] = tested on: MCF7 cells (ATCC #HTB-22); experiment: Cellular growth inhibition assay, MCF7 cells purchased from ATCC; conditions: Table 8-A, MCF7 cells purchased from ATCC, six days, CellTiter-Glo, read-out: GI50
Outline: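 MCF7 cells in RPMI 1640 with 10% FBS and 0.2 U/ml insulin, seeded at 1,500 cells/well (ATCC) or 225 cells/well (ECACC). Compounds added 24 h later, then 6 days at 37° C. Viability by CellTiter-Glo 2.0 luminescence. GI50 from four-parameter fit.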

[4] = T-REx-293, 72 h, Table 7-A, T-Rex 293 cells with doxycycline (increased ERα expression), CellTiter-Glo, read-out: (+) Dox GI50
[5] = T-REx-293, 72 h, Table 7-A, T-Rex 293 cells without doxycycline (lacking increased ERα expression), CellTiter-Glo, read-out: (−) Dox GI50

Compound | GI50 [1, 4] [nM] | GI50 [2, 5] [nM] | GI50 ([3]; Homo sapiens, MCF7, 144 h) [nM] | GI50 ([1]; T-REx-293, 72 h, T-Rex 293 cells with doxycycline-induced ERα expression, CellTiter-Glo 2.0, read-out: (+) Dox TRex ERa (GI50)) [nM] | GI50 ([2]; T-REx-293, 72 h, T-Rex 293 cells without doxycycline, CellTiter-Glo 2.0, read-out: (−) Dox TRex ERa (GI50)) [nM] | GI50 ([1]; Table 7-A, T-Rex 293 cells with doxycycline (increased ERα expression), CellTiter-Glo, read-out: (+) Dox GI50) [nM] | GI50 ([2]; Table 7-A, T-Rex 293 cells without doxycycline (lacking increased ERα expression), CellTiter-Glo, read-out: (−) Dox GI50) [nM] | GI50 [3] [nM]
Cc1sc2c(c1C)C(c1ccc(N3CCC(O)(CN4CCN(c5ccc([C@@H]6c7ccc(O)cc7CC[C@@H]6c6ccccc6)cc5)CC4)CC3)cc1)=N[C@@H](Cc1ncco1)c1nnc(C)n1-2 [III-143] | > 2500 | > 2500 | > 2500 | – | – | – | – | –
Cc1sc2c(c1C)C(c1ccc(N3CCN(CC4CCN(c5ccc([C@@H]6c7ccc(O)cc7CC[C@@H]6c6ccccc6)cc5)CC4)CC3)cc1)=N[C@@H](C)c1nnc(C)n1-2 (single isomer, unassigned) [I-37b] | 500 to 2500 | 500 to 2500 | 500 to 2500 | – | – | – | – | –
Cc1sc2c(c1C)C(c1ccc(N3CCC(CN4CCN(c5ccc([C@@H]6c7ccc8n[nH]cc8c7C[C@@H](C)N6CC(F)(F)F)nc5)CC4)CC3)cc1)=N[C@@H](C)c1nnc(C)n1-2 [I-27, (S)-2,3,6,9-tetramethyl-4-(4-(4-((4-(6-((6S,8R)-8-methyl-7-(2,2,2-trifluoroethyl)-6,7,8,9-tetrahydro-2H-pyrazolo[4,3-f]isoquinolin-6-yl)pyridin-3-yl)piperazin-1-yl)methyl)piperidin-1-yl)phenyl)-6H-thieno[3,2-f][1,2,4]triazolo[4,3-a][1,4]diazepine] | – | – | 50 to 500 | < 50 | 500 to 2500 | – | – | –
Cc1sc2c(c1C)C(c1ccc(N3CC(CN4CCN(c5ccc(C6=C(c7ccc(Cl)cc7Cl)CCCc7cc(C(=O)O)ccc76)cc5)CC4)C3)cc1)=N[C@@H](C)c1nnc(C)n1-2 [IV-10] | 50 to 500 | 500 to 2500 | 50 to 500 | – | – | – | – | –
Cc1sc2c(c1C)C(c1ccc(N3CCN(CC4CN(c5ccc([C@H]6c7ccc(O)cc7CC[C@H]6c6ccccc6)cc5)C4)CC3)cc1)=N[C@@H](C)c1nnc(C)n1-2 [III-68] | 50 to 500 | 500 to 2500 | 50 to 500 | – | – | – | – | –
CC1=C(c2c(F)cc(F)cc2F)[C@H](c2ccc(C3CCN(CC4(O)CCN(c5ccc(C6=N[C@@H](C)c7nnc(C)n7-c7sc(C)c(C)c76)cc5)CC4)CC3)cc2)Oc2ccc(O)cc21 [V-31] | < 50 | 50 to 500 | 50 to 500 | – | – | – | – | –
Cc1sc2c(c1C)C(c1ccc(NC[C@H]3CC[C@H](CNCCOc4ccc([C@@H]5c6ccc(O)cc6CC[C@@H]5c5ccccc5)cc4)CC3)cc1)=NC(Cc1ncco1)c1nnc(C)n1-2 (stereo partly drawn) [III-49] | < 50 | 50 to 500 | < 50 | – | – | – | – | –
Cc1sc2c(c1C)C(c1ccc(C3CN(C[C@H]4CC[C@H](CN5CC(c6ccc(C7=C(c8ccccc8)CCCc8cc(C(=O)O)ccc87)cc6)C5)CC4)C3)cc1)=N[C@@H](C)c1nnc(C)n1-2 [IV-32] | < 50 | 50 to 500 | 50 to 500 | – | – | – | – | –
Cc1sc2c(c1C)C(c1ccc(N3CC4(CCC(CN5CCC(c6ccc([C@@H]7c8ccc(O)cc8CC[C@@H]7c7ccc(F)cc7)cc6)CC5)CC4)C3)cc1)=N[C@@H](C)c1nnc(C)n1-2 [III-253] | < 50 | 500 to 2500 | < 50 | – | – | – | – | –
Cc1sc2c(c1C)C(c1ccc(N3CCC(O)(CN4CCN(c5cc(F)c([C@@H]6c7ccc(O)cc7CC[C@@H]6c6ccccc6)c(F)c5)CC4)CC3)cc1)=N[C@H](Cc1ncco1)c1nnc(C)n1-2 [III-197] | < 50 | 50 to 500 | 50 to 500 | – | – | – | – | –
Cc1sc2c(c1C)C(c1ccc(N3CCC(O)(CN4CCN(c5ccc(C6=C(c7ccc(Cl)c(Cl)c7)CCCc7cc(C(=O)O)ccc76)cc5)CC4)CC3)cc1)=N[C@@H](C)c1nnc(C)n1-2 [IV-52] | 50 to 500 | 500 to 2500 | 50 to 500 | – | – | – | – | –
Cc1sc2c(c1C)C(c1ccc(C#CC3CC4(CCN(c5ccc([C@@H]6c7ccc(O)cc7CC[C@@H]6c6ccccc6)cc5)CC4)C3)cc1)=N[C@H](Cc1ncco1)c1nnc(C)n1-2 [III-19] | > 2500 | > 2500 | > 2500 | – | – | – | – | –
Cc1sc2c(c1C)C(c1ccc(N3CC4(C3)CC(O)(CN3CCN(c5cc(F)c([C@H]6c7ccc(O)cc7CC[C@H]6c6ccc(F)cc6)c(F)c5)CC3)C4)cc1)=N[C@@H](C)c1nnc(C)n1-2 [III-280] | 50 to 500 | 500 to 2500 | 50 to 500 | – | – | – | – | –
Cc1sc2c(c1C)C(c1ccc(NCCN3CCN(CCOc4ccc([C@@H]5c6ccc(O)cc6CC[C@@H]5c5ccccc5)cc4)CC3)cc1)=NC(Cc1ncco1)c1nnc(C)n1-2 (stereo partly drawn) [III-32] | – | – | – | – | – | < 50 | 50 to 500 | 50 to 500
Cc1sc2c(c1C)C(c1ccc(N3CCC(CN4CCN(c5cc(F)c([C@@H]6c7ccc(O)cc7CC[C@@H]6c6ccccc6)cc5F)CC4)CC3)cc1)=N[C@@H](C)c1nnc(C)n1-2 [III-317] | < 50 | 50 to 500 | 50 to 500 | – | – | – | – | –
Cc1sc2c(c1C)C(c1ccc(N3CCC(O)(CN4CCN(c5ccc([C@H]6c7ccc(O)cc7CC[C@H]6c6ccccc6)nn5)CC4)CC3)cc1)=N[C@@H](Cc1ncco1)c1nnc(C)n1-2 [III-225] | < 50 | 50 to 500 | 50 to 500 | – | – | – | – | –
Cc1sc2c(c1C)C(c1ccc(N3CCN(CC4CCN(c5ccc([C@H]6c7ccc(O)cc7CC[C@H]6c6ccccc6)cc5)CC4)CC3)cc1)=N[C@H](Cc1ncco1)c1nnc(C)n1-2 [III-2, (5S,6R)-6-phenyl-5-(4-(4-((4-(4-((R)-2,3,9-trimethyl-6-(oxazol-2-ylmethyl)-6H-thieno[3,2-f][1,2,4]triazolo[4,3-a][1,4]diazepin-4-yl)phenyl)piperazin-1-yl)methyl)piperidin-1-yl)phenyl)-5,6,7,8-tetrahydronaphthalen-2-ol] | > 2500 | > 2500 | 500 to 2500 | – | – | – | – | –
Cc1sc2c(c1C)C(c1ccc(N3CCC(O)(CN4CCN(c5ccc(C6=C(c7ccccc7)CCCc7cc(C(=O)O)ccc76)c(F)c5)CC4)CC3)cc1)=N[C@@H](C)c1nnc(C)n1-2 [IV-28] | < 50 | 500 to 2500 | < 50 | – | – | – | – | –
Cc1sc2c(c1C)C(c1ccc(N3CC4(CC(CN5CCN(c6cc(F)c([C@@H]7c8ccc(O)cc8CC[C@@H]7c7ccccc7)c(F)c6)CC5)C4)C3)cc1)=N[C@@H](C)c1nnc(C)n1-2 [III-277] | < 50 | 500 to 2500 | < 50 | – | – | – | – | –
CC1=C(c2c(F)cc(F)cc2F)[C@@H](c2ccc(OCCN3CCC[C@]4(CCN(c5ccc(C6=N[C@@H](C)c7nnc(C)n7-c7sc(C)c(C)c76)cc5)C4)C3)cc2)Oc2ccc(O)cc21 [V-9] | > 2500 | 500 to 2500 | 50 to 500 | – | – | – | – | –
Cc1sc2c(c1C)C(c1ccc(N3CCC(O)(CN4CCN(c5ccc([C@H]6c7ccc(O)cc7CC[C@H]6c6c(F)cccc6F)c(F)c5)CC4)CC3)cc1)=N[C@@H](C)c1nnc(C)n1-2 [III-294] | 50 to 500 | 50 to 500 | 50 to 500 | – | – | – | – | –
Cc1sc2c(c1C)C(c1ccc(N3CC4(CCC(CN5CCN(c6ccc([C@@H]7c8ccc(O)cc8CC[C@@H]7c7ccccc7)cc6Cl)CC5)CC4)C3)cc1)=N[C@@H](C)c1nnc(C)n1-2 [III-265] | 50 to 500 | > 2500 | 50 to 500 | – | – | – | – | –
Cc1sc2c(c1C)C(c1ccc(N3CC(CN4CCN(c5ccc(C6=C(c7ccc(Cl)cc7Cl)CCCc7cc(C(=O)O)ccc76)cc5)CC4)C3)cc1)=N[C@@H](Cc1ncco1)c1nnc(C)n1-2 [IV-13] | < 50 | 50 to 500 | < 50 | – | – | – | – | –
Cc1sc2c(c1C)C(c1ccc(N3CC(C(=O)N4CCN(CC5CN(c6ccc([C@@H]7c8ccc(O)cc8CC[C@@H]7c7ccccc7)cc6)C5)CC4)C3)cc1)=N[C@@H](Cc1ncco1)c1nnc(C)n1-2 [III-168] | < 50 | 50 to 500 | < 50 | – | – | – | – | –
Cc1sc2c(c1C)C(c1ccc(N3CCC(O)(CN4CCN(c5ccc([C@H]6c7ccc(C(=O)O)cc7CC[C@H]6c6ccccc6)cc5)CC4)CC3)cc1)=N[C@H](Cc1ncco1)c1nnc(C)n1-2 [III-198] | > 2500 | > 2500 | > 2500 | – | – | – | – | –
CC1=C(c2c(F)cc(F)cc2F)[C@@H](c2ccc(OCC(=O)N3CCCC4(CCN(c5ccc(C6=N[C@@H](C)c7nnc(C)n7-c7sc(C)c(C)c76)cc5)C4)C3)cc2)Oc2ccc(O)cc21 (stereo partly drawn) [V-29] | 50 to 500 | 50 to 500 | 50 to 500 | – | – | – | – | –
